The values below are quoted from earlier work in patent publication US20050266049A1, “Method for the covering of food with polyene antifungal compositions” (D S M IP Assets B.V., priority 2002, published 2005).

With `C[C@@H]1C/C=C/C=C/C=C/C=C/[C@H](O[C@@H]2O[C@H](C)[C@@H](O)[C@H](N)[C@@H]2O)C[C@@H]2O[C@](O)(C[C@@H](O)C[C@H]3O[C@@H]3/C=C/C(=O)O1)C[C@H](O)[C@H]2C(=O)O` [natamycin], the “solubility of natamycin in water” value is listed as 30-50 ppm. The “Minimal Inhibitory Concentration (MIC)” value in the series on most foodborn fungi was “less than 10 ppm”.
